Data as given in US20250099428A1, “USE OF BENZISOSELENAZOLE COMPOUND IN PREPERATION OF DRUG FOR TREATMENT OF SPINAGLIOMA” (Beijing Neurosurgical Institute, priority 2022, published 2025).
“Also recorded” adds a separate entry of the source.

Key:
Spinaglioma cells SP0001 = test: CCK8 cell proliferation inhibition, spinaglioma cells SP0001; assay type: cell-based, human; settings: for growth inhibition / killing effect on SP0001 cells: CCK8, cytarabine 24, 48, 96 hours, BS 24, 48 hours
Description: (§1) Spinaglioma cells SP0001 in a logarithmic growth phase were digested with trypsin and centrifuged to obtain a cell precipitate, and cells were counted after being re-suspended in a complete medium. Based on the count results, the cells SP0001 were inoculated into a 96-well cell culture plate with 5000 cells per well and cultured in a 37° C. incubator in a 5% CO2 environment. After 24 hours, the cells were treated with drugs. Atemozolomide (TMZ) compound and a benzisoselenazole compound (BS) of the present invention were respectively dissolved in DMSO to prepare a stock solution, which was then dissolved with the complete medium to different drug concentrations. The gradient concentrations of TMZ were 0, 100, 150, 200, 250, 300, 350, and 400 μM. The gradient concentrations of BS were 0, 1, 2, 3, 4, 5, 6, 7, and 8 μM. The medium was removed from the wells, and the corresponding drug solution of each concentration was added with 100 μL per well.
[…] When testing, a CCK8 working solution was prepared in advance, namely, an appropriate volume of working solution was prepared based on 100 μL serum-free medium and 10 μL CCK8 per well, and the working solution was placed in dark. The well plate was taken out of the incubator, the cell medium was removed from the wells to be tested, 110 μL of CCK8 working solution was added to each well, the incubation was continued for 2 hours, then the absorbance at 450 nm was measured on an enzyme-linked immunosorbent assay (ELISA) reader, an inhibition rate corresponding to each concentration was calculated, and IC50 values at corresponding time were calculated using GraphPad 7.0 software.
This example measured the killing effects of a cytarabine compound and the BS compound of the present invention on two types of spinaglioma cell lines SCA-S01 and SP0001, using the same method as Example 1.

[1] = tested on: primary spinaglioma cell line SP0001; test: Live and dead cell fluorescence staining of SP0001 cells; assay type: cell-based, human; settings: 6 μM, treated 48 hours
Description: Fluorescence staining was performed using live and dead cell staining technology on the primary spinaglioma cell line SP0001 treated with the benzisoselenazole compound for 48 hours.

[2] = tested on: SP0001 human-derived spinaglioma tumor; test: SP0001 tumor-bearing NPG mouse model, tumor growth inhibition; assay type: in vivo, NPG immunodeficient mice; settings: for tumor volume inhibition rate: end of experiment; for tumor size at end of experiment: intragastric once a day, 24 days
Description: (§2) First, a tumor-bearing mouse model was built. Female NPG immunodeficient mice (6-8 weeks, starting weight 16-21 g, purchased from Beijing Vitalstar Biotechnology Co., Ltd.) were used for experimental research. The animals were raised and operated under sterile conditions, and all animal experiments were conducted in accordance with the international guidelines for animal experimentation. SP0001 human-derived spinaglioma tumor blocks (2-3 mm^3) were prepared and inoculated subcutaneously to the right ventrodorsal side of each NPG mouse. After inoculation, the status of the mice was observed, and the size of the tumor was measured. The animals with a tumor volume of 40 mm^3 were selected for experiment, and the animals that had too large tumor and no tumor were not selected. A total of 40 suitable tumor-bearing animals were selected for the experiment and divided into 5 experimental groups, with 8 mice in each group. The first day of administration was recorded as D1, the second day of administration was recorded as D2, and so on. All the animals were administered intragastrically once a day for 24 consecutive days. […] In the experiment, the physiological saline group was used as a negative control, and the temozolomide (TMZ) treatment group was used as a positive control.

[3] = Body weight and toxicity in tumor-bearing NPG mice; assay type: in vivo, NPG immunodeficient mice; settings: for toxic and side effects on NPG mice: intragastric once a day, 24 days, BS: BSM and BSH groups, TMZ 30 mg/Kg
Description: as §2
During the experiment, no clinical abnormal symptoms or animal deaths due to drug toxicity were observed.
The histogram of the weight change rate of NPG mice after administration was shown in FIG. 9 (BSL, BSM, and BSH represent a low dose group 90 mg/Kg, a medium dose group 180 mg/Kg, and a high dose group 360 mg/Kg of the drug BS respectively).

SCA-S01 cells = test: CCK8 cell proliferation inhibition, spinaglioma cells SCA-S01; assay type: cell-based, human; settings: cytarabine 24, 48, 96 hours, BS 24, 48 hours
Description: as §1, with “The medium was removed from the wells, and the corresponding drug solution of each concentration was added with 100 μL per well.” left out
The well plate was put back into the incubator, and cell proliferation was tested after 24 and 48 hours, respectively. […] The well plate was taken out of the incubator, the cell medium was removed from the wells to be tested, 110 μL of CCK8 working solution was added to each well, the incubation was continued for 2 hours, then the absorbance at 450 nm was measured on an enzyme-linked immunosorbent assay (ELISA) reader, an inhibition rate corresponding to each concentration was calculated, and IC50 values at corresponding time were calculated using GraphPad 7.0 software. […]

[4] = SP0001 cells, CCK8, 24 and 48 hours

SMILES | growth inhibition / killing effect on SP0001 cells (Spinaglioma cells SP0001) | inhibitory effect on proliferation of patient-derived spinaglioma cell line (Spinaglioma cells SP0001; [4]) | sensitivity of patient-derived spinaglioma to the compound (Spinaglioma cells SP0001; [4]) | killing effect [1] | tumor volume inhibition rate ([2]; BS high dose 360 mg/Kg) | tumor volume inhibition rate ([2]; BS low dose 90 mg/Kg) | tumor volume inhibition rate ([2]; BS medium dose 180 mg/Kg) | tumor size at end of experiment ([2]; BSH high dose 360 mg/Kg) | tumor size at end of experiment ([2]; BSL low dose 90 mg/Kg) | tumor size at end of experiment ([2]; BSM medium dose 180 mg/Kg) | weight change during administration ([3]; BSM and BSH groups (180 and 360 mg/Kg)) | toxic and side effects on NPG mice [3] | killing effect on SCA-S01 cells (SCA-S01 cells) | tumor volume inhibition rate ([2]; TMZ group 30 mg/Kg) | tumor size at end of experiment ([2]; TMZ group 30 mg/Kg) | weight loss compared to the Control group (decrease) ([3]; TMZ group 30 mg/Kg)
O=c1c2ccccc2[se]n1CCCCn1[se]c2ccccc2c1=O [BS] | significant killing effect | obvious inhibitory effect | sensitive | 90% | 45.99% | 14.01% | 25.89% | 82.56±41.40 mm^3 | 131.44±39.81 mm^3 | 113.29±57.21 mm^3 | did not show any weight loss; also recorded: no significant change in body weight | no significant toxic and side effects | strong killing effects | – | – | –
Cn1nnc2c(C(N)=O)ncn2c1=O [TMZ, temozolomide, reference compound] | – | – | – | – | – | – | – | – | – | – | – | significant toxic and side effects; also recorded: obvious toxicity | – | 82.59% | 26.61±10.30 mm^3 | over 20%
Nc1ccn([C@@H]2O[C@H](CO)[C@@H](O)[C@@H]2O)c(=O)n1 [cytarabine, reference compound] | cannot significantly inhibit the growth | – | – | – | – | – | – | – | – | – | – | – | weak killing effect | – | – | –
